Activity calls are given as the source filed them. The calls are words filed in the database; no cut-off is given here.
How the values were obtained:
[1] = test system: H9c2; assay: Induction of mitochondrial biogenesis in rat H9c2 cells assessed as upregulation of Tfam mRNA expression at 30 uM after 24 hrs by RT-PCR analysis relative to control; assay type: functional, cell-based
[2] = test system: H9c2; assay: Cardioprotective activity against doxorubicin-induced injury in rat H9c2 cells assessed as inhibition of LDH leakage preincubated for 1 hr followed by doxorubicin challenge for 24 hrs; assay type: functional, cell-based
[3] = test system: H9c2; assay: Cardioprotective activity against doxorubicin-induced injury in rat H9c2 cells preincubated for 1 hr followed by doxorubicin challenge for 24 hrs by MTT assay; assay type: functional, cell-based
[4] = test system: H9c2; assay: Induction of mitochondrial biogenesis in rat H9c2 cells assessed as upregulation of PGC-1beta mRNA expression at 30 uM after 24 hrs by RT-PCR analysis relative to control; assay type: functional, cell-based
[5] = test system: H9c2; assay: Cardioprotective activity against t-BHP-induced injury in rat H9c2 cells preincubated for 1 hr followed by t-BHP challenge for 12 hrs by MTT assay; assay type: functional, cell-based
[6] = test system: carboxyesterase; assay: Half life of compound assessed as carboxyesterase (unknown origin)-mediated drug degradation at 0.655 x 10^3 uM by HPLC analysis; assay type: ADME; details: human
[7] = test system: H9c2; assay: Induction of mitochondrial biogenesis in rat H9c2 cells assessed as mitochondrial DNA replication after 24 hrs by Mitotracker/DAPI/FITC-staining based immunofluorescence analysis relative to control; assay type: functional, cell-based

SMILES	Activity [1]	Activity [2]	Activity [3]	Activity [4]	Activity [5]	half-life [6] [min]	Activity [7]
C=CCC(CC=C)(OC(=O)[C@@H](Cc1ccc(OC(C)=O)c(OC(C)=O)c1)OC(C)=O)c1nc(C)c(C)nc1C	Active	Dose-dependent effect	Dose-dependent effect	Active	Active	20.5	Active
CC(=O)Oc1ccc(C[C@@H](OC(C)=O)C(=O)OC(C)c2nc(C)c(C)nc2C)cc1OC(C)=O (stereo partly drawn)					Active	10.6	
CC(=O)Oc1ccc(CC(OC(C)=O)C(=O)OCc2nc(C)c(C)nc2C)cc1OC(C)=O (stereo not drawn)					Active	10.3	
C=CCC(OC(=O)[C@@H](Cc1ccc(OC(C)=O)c(OC(C)=O)c1)OC(C)=O)c1nc(C)c(C)nc1C (stereo partly drawn)					Active	11.3	

From ChEMBL document CHEMBL3734680, “Synthesis and relationship of stability and biological activity of new DSS and TMP conjugates” (Medchemcomm, 2015)
